Test results as given in ChEMBL document CHEMBL5154752, “CLIPSing Melanotan-II to Discover Multiple Functionally Selective hMCR Agonists” (J Med Chem, 2022).

Tests used:
Melanocortin receptor 3 [1] = molecular target: T1, Melanocortin receptor 3 (Homo sapiens, UniProt P41968); experiment: Agonist activity at human MC3R expressed in HEK293 cells assessed as maximal intracellular cAMP accumulation by fluorescence based analysis; assay type: functional, cell-based
Melanocortin receptor 3 [2] = molecular target: T1, Melanocortin receptor 3; experiment: Agonist activity at human MC3R expressed in HEK293 cells assessed as maximal intracellular cAMP accumulation at 10 uM by fluorescence based analysis relative to control; assay type: functional, cell-based; details: filed as agonist
Melanocortin receptor 5 [3] = molecular target: T2, Melanocortin receptor 5 (Homo sapiens, UniProt P33032); experiment: Agonist activity at human MC5R expressed in HEK293 cells assessed as maximal intracellular cAMP accumulation by fluorescence based analysis; assay type: functional, cell-based
[4] = molecular target: T3, Melanocyte-stimulating hormone receptor (Homo sapiens, UniProt Q01726); experiment: Agonist activity at human MC1R expressed in HEK293 cells assessed as maximal intracellular cAMP accumulation by fluorescence based analysis; assay type: functional, cell-based
Target sequence in this assay (Q01726 whole entry): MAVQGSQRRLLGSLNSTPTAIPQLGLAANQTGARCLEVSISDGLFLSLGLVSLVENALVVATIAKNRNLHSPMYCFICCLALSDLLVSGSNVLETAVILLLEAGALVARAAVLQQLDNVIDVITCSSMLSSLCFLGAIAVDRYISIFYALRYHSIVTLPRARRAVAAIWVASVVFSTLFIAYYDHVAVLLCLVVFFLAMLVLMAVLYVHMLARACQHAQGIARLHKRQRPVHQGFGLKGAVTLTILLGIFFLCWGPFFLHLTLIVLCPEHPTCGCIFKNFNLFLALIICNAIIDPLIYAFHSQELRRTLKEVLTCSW

[5] = molecular target: T3, Melanocyte-stimulating hormone receptor; experiment: Agonist activity at human MC1R expressed in HEK293 cells assessed as maximal intracellular cAMP accumulation at 10 uM by fluorescence based analysis relative to control; assay type: functional, cell-based; details: filed as agonist
Target sequence in this assay (Q01726 whole entry, looked up): as the sequence (Q01726 whole entry) above

Melanocortin receptor 4 [6] = molecular target: T4, Melanocortin receptor 4 (Homo sapiens, UniProt P32245); experiment: Agonist activity at human MC4R expressed in HEK293 cells assessed as maximal intracellular cAMP accumulation by fluorescence based analysis; assay type: functional, cell-based
[7] = molecular target: T3, Melanocyte-stimulating hormone receptor; experiment: Displacement of [125I]NDP-alpha-MSH from human MC1R expressed in HEK293 cells by competitive binding assay; assay type: cell-based
Target sequence in this assay (Q01726 whole entry): as above

Melanocortin receptor 5 [8] = molecular target: T2, Melanocortin receptor 5; experiment: Agonist activity at human MC5R expressed in HEK293 cells assessed as maximal intracellular cAMP accumulation at 10 uM by fluorescence based analysis relative to control; assay type: functional, cell-based; details: filed as agonist
Melanocortin receptor 3 [9] = molecular target: T1, Melanocortin receptor 3; experiment: Displacement of [125I]NDP-alpha-MSH from human MC3R expressed in HEK293 cells by competitive binding assay; assay type: cell-based
Melanocortin receptor 5 [10] = molecular target: T2, Melanocortin receptor 5; experiment: Displacement of [125I]NDP-alpha-MSH from human MC5R expressed in HEK293 cells by competitive binding assay; assay type: cell-based
Melanocortin receptor 4 [11] = molecular target: T4, Melanocortin receptor 4; experiment: Displacement of [125I]NDP-alpha-MSH from human MC4R expressed in HEK293 cells by competitive binding assay; assay type: cell-based
Melanocortin receptor 5 [12] = molecular target: T2, Melanocortin receptor 5; experiment: Agonist activity at human MC5R expressed in HEK293 cells assessed as cAMP accumulation at 10 uM by fluorescence based analysis relative to control; assay type: functional, cell-based

T2 sequence (P33032 whole entry): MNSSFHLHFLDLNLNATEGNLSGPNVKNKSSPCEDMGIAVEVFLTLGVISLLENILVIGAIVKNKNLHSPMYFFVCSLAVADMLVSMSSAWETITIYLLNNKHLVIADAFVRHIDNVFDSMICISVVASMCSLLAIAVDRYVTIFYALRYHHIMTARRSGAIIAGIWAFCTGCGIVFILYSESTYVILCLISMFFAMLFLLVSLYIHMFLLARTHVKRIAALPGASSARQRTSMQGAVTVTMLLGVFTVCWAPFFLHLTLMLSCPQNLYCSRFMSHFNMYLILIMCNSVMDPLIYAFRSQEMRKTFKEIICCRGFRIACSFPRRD
T1 sequence (P41968 whole entry): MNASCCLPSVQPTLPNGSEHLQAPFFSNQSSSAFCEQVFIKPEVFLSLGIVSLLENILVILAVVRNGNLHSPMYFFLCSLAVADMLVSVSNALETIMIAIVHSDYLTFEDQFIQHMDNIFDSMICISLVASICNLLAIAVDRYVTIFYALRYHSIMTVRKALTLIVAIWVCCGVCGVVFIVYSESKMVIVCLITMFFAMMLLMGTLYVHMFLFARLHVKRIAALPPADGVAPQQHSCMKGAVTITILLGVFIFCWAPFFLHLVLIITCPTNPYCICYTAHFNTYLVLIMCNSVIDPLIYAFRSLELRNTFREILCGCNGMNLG
T4 sequence (P32245 whole entry): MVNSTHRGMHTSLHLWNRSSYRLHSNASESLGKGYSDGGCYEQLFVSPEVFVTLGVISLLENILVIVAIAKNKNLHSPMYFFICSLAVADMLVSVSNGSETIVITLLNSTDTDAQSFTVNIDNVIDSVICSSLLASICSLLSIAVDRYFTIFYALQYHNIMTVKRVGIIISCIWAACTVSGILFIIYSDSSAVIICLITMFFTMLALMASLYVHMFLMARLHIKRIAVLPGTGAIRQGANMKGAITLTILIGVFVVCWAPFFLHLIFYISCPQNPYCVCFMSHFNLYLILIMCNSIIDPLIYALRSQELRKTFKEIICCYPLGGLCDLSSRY

| Structure (SMILES) | EC50 (Melanocortin receptor 3 [1]) [nM] | Activity (Melanocortin receptor 3 [2]) [%] | EC50 (Melanocortin receptor 5 [3]) [nM] | EC50 [4] [nM] | Activity [5] [%] | EC50 (Melanocortin receptor 4 [6]) [nM] | IC50 [7] [nM] | Activity (Melanocortin receptor 5 [8]) [%] | IC50 (Melanocortin receptor 3 [9]) [nM] | IC50 (Melanocortin receptor 5 [10]) [nM] | IC50 (Melanocortin receptor 4 [11]) [nM] | Activity (Melanocortin receptor 5 [12]) [%] |
| --- | --- | --- | --- | --- | --- | --- | --- | --- | --- | --- | --- | --- |
| CCCC[C@H](NC(C)=O)C(=O)N[C@H]1CSCc2ccc(cc2)CSC[C@@H](C(N)=O)NC(=O)[C@H](Cc2c[nH]c3ccccc23)NC(=O)[C@H](CCCNC(=N)N)NC(=O)[C@@H](Cc2ccccc2)NC(=O)[C@H](Cc2c[nH]cn2)NC1=O | 645 |  | > 1000 | 4 |  |  | 7.3 |  | 24 | 2 |  |  |
| CCCC[C@H](NC(C)=O)C(=O)N[C@@H]1C(=O)N[C@@H](Cc2c[nH]cn2)C(=O)N[C@H](Cc2ccccc2)C(=O)N[C@@H](CCCNC(=N)N)C(=O)N[C@@H](Cc2c[nH]c3ccccc23)C(=O)N[C@H](C(N)=O)C(C)(C)SCc2ccc(cc2)CSC1(C)C |  |  |  |  |  |  | > 1000 |  | > 1000 | > 1000 | > 1000 |  |
| CCCC[C@H](NC(C)=O)C(=O)N[C@@H]1C(=O)N[C@@H](Cc2c[nH]cn2)C(=O)N[C@H](Cc2ccccc2)C(=O)N[C@@H](CCCNC(=N)N)C(=O)N[C@@H](Cc2c[nH]c3ccccc23)C(=O)N[C@H](C(N)=O)CSCc2ccc(cc2)CSC1(C)C |  |  |  |  |  |  | 227 |  | > 1000 | 422 | > 1000 |  |
| CCCC[C@H](NC(C)=O)C(=O)N[C@H]1CSCc2cccc(c2)CSC[C@@H](C(N)=O)NC(=O)[C@H](Cc2c[nH]c3ccccc23)NC(=O)[C@H](CCCNC(=N)N)NC(=O)[C@@H](Cc2ccccc2)NC(=O)[C@H](Cc2c[nH]cn2)NC1=O | 902 |  | > 1000 | 3 |  |  | 3.5 |  | 32 | 4.4 |  |  |
| CCCC[C@H](NC(C)=O)C(=O)N[C@@H]1C(=O)N[C@@H](Cc2c[nH]cn2)C(=O)N[C@H](Cc2ccccc2)C(=O)N[C@@H](CCCNC(=N)N)C(=O)N[C@@H](Cc2c[nH]c3ccccc23)C(=O)N[C@H](C(N)=O)C(C)(C)SCc2cccc(c2)CSC1(C)C |  |  |  |  |  |  | 450 |  | 450 | 172 | > 1000 |  |

The next lines start with the values.

| EC50 (Melanocortin receptor 3 [1]) [nM] | Activity (Melanocortin receptor 3 [2]) [%] | EC50 (Melanocortin receptor 5 [3]) [nM] | EC50 [4] [nM] | Activity [5] [%] | EC50 (Melanocortin receptor 4 [6]) [nM] | IC50 [7] [nM] | Activity (Melanocortin receptor 5 [8]) [%] | IC50 (Melanocortin receptor 3 [9]) [nM] | IC50 (Melanocortin receptor 5 [10]) [nM] | IC50 (Melanocortin receptor 4 [11]) [nM] | Activity (Melanocortin receptor 5 [12]) [%] | Structure (SMILES) |
| --- | --- | --- | --- | --- | --- | --- | --- | --- | --- | --- | --- | --- |
| 246 | 100 | 48 | 3 | 100 | 219 | 19 | 100 | 64 | 69 | 57.2 |  | CCCC[C@H](NC(C)=O)C(=O)N[C@H]1CSCc2ccc(cc2)CSC(C)(C)[C@@H](C(N)=O)NC(=O)[C@H](Cc2c[nH]c3ccccc23)NC(=O)[C@H](CCCNC(=N)N)NC(=O)[C@@H](Cc2ccccc2)NC(=O)[C@H](Cc2c[nH]cn2)NC1=O |
| > 1000 | 100 |  | 6.1 | 100 | > 1000 | 44 | 100 | 74 | 46 | 45.8 | 0 | CCCC[C@H](NC(C)=O)C(=O)N[C@H]1CSCc2ccccc2CSC(C)(C)[C@@H](C(N)=O)NC(=O)[C@H](Cc2c[nH]c3ccccc23)NC(=O)[C@H](CCCNC(=N)N)NC(=O)[C@@H](Cc2ccccc2)NC(=O)[C@H](Cc2c[nH]cn2)NC1=O |
|  |  |  |  |  |  | 553 |  | 452 | 507 | > 1000 |  | CCCC[C@H](NC(C)=O)C(=O)N[C@@H]1C(=O)N[C@@H](Cc2c[nH]cn2)C(=O)N[C@H](Cc2ccccc2)C(=O)N[C@@H](CCCNC(=N)N)C(=O)N[C@@H](Cc2c[nH]c3ccccc23)C(=O)N[C@H](C(N)=O)C(C)(C)SCc2ccccc2CSC1(C)C |
| 435 |  | > 1000 | 6.5 |  |  | 9 |  | 71 | 30 |  |  | CCCC[C@H](NC(C)=O)C(=O)N[C@H]1CSCc2cccc(c2)CSC(C)(C)[C@@H](C(N)=O)NC(=O)[C@H](Cc2c[nH]c3ccccc23)NC(=O)[C@H](CCCNC(=N)N)NC(=O)[C@@H](Cc2ccccc2)NC(=O)[C@H](Cc2c[nH]cn2)NC1=O |
| > 1000 | 100 | > 1000 | 107 | 100 | 360 | 275 | 100 | 302 | 78 | 9.1 |  | CCCC[C@H](NC(C)=O)C(=O)N[C@H]1CSCc2ccccc2CSC[C@@H](C(N)=O)NC(=O)[C@H](Cc2c[nH]c3ccccc23)NC(=O)[C@H](CCCNC(=N)N)NC(=O)[C@@H](Cc2ccccc2)NC(=O)[C@H](Cc2c[nH]cn2)NC1=O |
|  |  |  |  |  |  | 150 |  | 222 | 157 | 619 |  | CCCC[C@H](NC(C)=O)C(=O)N[C@@H]1C(=O)N[C@@H](Cc2c[nH]cn2)C(=O)N[C@H](Cc2ccccc2)C(=O)N[C@@H](CCCNC(=N)N)C(=O)N[C@@H](Cc2c[nH]c3ccccc23)C(=O)N[C@H](C(N)=O)CSCc2ccccc2CSC1(C)C |
| 9.4 | 100 | 126 | > 1000 | 100 | 618 | 70 | 100 | 244 | 93.5 | 628 |  | CCCC[C@H](NC(C)=O)C(=O)N[C@@H]1C(=O)N[C@@H](Cc2c[nH]cn2)C(=O)N[C@H](Cc2ccccc2)C(=O)N[C@@H](CCCNC(=N)N)C(=O)N[C@@H](Cc2c[nH]c3ccccc23)C(=O)N[C@H](C(N)=O)CSCc2cccc(c2)CSC1(C)C |
